Assay results from ChEMBL document CHEMBL3045187, “Chemical weed control in seedbed sown onion (Allium cepa L.)” (Crop Prot, 2006).

Legend:
Cyperus rotundus [1] = assay: Herbicidal activity against Cyperus rotundus assessed as total fresh weight at 0.225 kg/ha applied as spray during post-emergence (reference value: 23.6 MT/ha); type: functional
Chenopodiastrum murale [2] = assay: Herbicidal activity against Chenopodium murale assessed as total fresh weight at 0.225 kg/ha applied as spray during postemergence (reference value: 23.6 MT/ha); type: functional
Malva sylvestris [3] = assay: Herbicidal activity against Malva sylvestris assessed as total fresh weight at 0.225 kg/ha applied as spray during post-emergence (reference value: 23.6 MT/ha); type: functional
Malva sylvestris [4] = assay: Herbicidal activity against Malva sylvestris assessed as total dry weight at 0.225 kg/ha applied as spray during post-emergence (reference value: 4.1 MT/ha); type: functional
Allium cepa [5] = assay: Phytotoxicity in Allium cepa (onion) seedling assessed as total fresh weight at 0.225 kg/ha applied as spray during post-emergence (reference value: 7.71 MT/ha); type: organism-based; conditions: in vivo, other
Cyperus rotundus [6] = assay: Herbicidal activity against Cyperus rotundus assessed as total dry weight at 0.225 kg/ha applied as spray during post-emergence (reference value: 4.1 MT/ha); type: functional
Chenopodiastrum murale [7] = assay: Herbicidal activity against Chenopodium murale assessed as total dry weight at 0.225 kg/ha applied as spray during postemergence (reference value: 4.1 MT/ha); type: functional
Cyperus rotundus [8] = assay: Herbicidal activity against Cyperus rotundus assessed as total dry weight at 0.6 kg/ha applied as spray before seed sowing (reference value: 4.1 MT/ha); type: functional
Allium cepa [9] = assay: Phytotoxicity in Allium cepa (onion) seedling assessed as total fresh weight at 0.6 kg/ha applied as spray during post-emergence (reference value: 7.71 MT/ha); type: organism-based; conditions: in vivo, other
Chenopodiastrum murale [10] = assay: Herbicidal activity against Chenopodium murale assessed as total dry weight at 0.6 kg/ha applied as spray before seed sowing (reference value: 4.1 MT/ha); type: functional
Malva sylvestris [11] = assay: Herbicidal activity against Malva sylvestris assessed as decrease in total dry weight at 0.6 kg/ha applied as spray during post-emergence relative to weed-infested control; type: functional; set-up: scale not given: the % may be the effect or the level left
Chenopodiastrum murale [12] = assay: Herbicidal activity against Chenopodium murale assessed as total fresh weight at 0.6 kg/ha applied as spray before seed sowing (reference value: 23.6 MT/ha); type: functional
Malva sylvestris [13] = assay: Herbicidal activity against Malva sylvestris assessed as total dry weight at 0.6 kg/ha applied as spray before seed sowing (reference value: 4.1 MT/ha); type: functional
Cyperus rotundus [14] = assay: Herbicidal activity against Cyperus rotundus assessed as decrease in total dry weight at 0.6 kg/ha applied as spray during post-emergence relative to weed-infested control; type: functional; set-up: scale not given: the % may be the effect or the level left
Malva sylvestris [15] = assay: Herbicidal activity against Malva sylvestris assessed as total fresh weight at 0.6 kg/ha applied as spray before seed sowing (reference value: 23.6 MT/ha); type: functional
Malva sylvestris [16] = assay: Herbicidal activity against Malva sylvestris assessed as total fresh weight at 0.6 kg/ha applied as spray during post-emergence (reference value: 23.6 MT/ha); type: functional
Cyperus rotundus [17] = assay: Herbicidal activity against Cyperus rotundus assessed as total fresh weight at 0.6 kg/ha applied as spray before seed sowing (reference value: 23.6 MT/ha); type: functional
Chenopodiastrum murale [18] = assay: Herbicidal activity against Chenopodium murale assessed as total fresh weight at 0.6 kg/ha applied as spray during postemergence (reference value: 23.6 MT/ha); type: functional
Allium cepa [19] = assay: Phytotoxicity in Allium cepa (onion) seedling assessed as total fresh weight at 0.6 kg/ha applied as spray before seed sowing (reference value: 7.71 MT/ha); type: organism-based; conditions: in vivo, other
Cyperus rotundus [20] = assay: Herbicidal activity against Cyperus rotundus assessed as total fresh weight at 0.6 kg/ha applied as spray during post-emergence (reference value: 23.6 MT/ha); type: functional
Chenopodiastrum murale [21] = assay: Herbicidal activity against Chenopodium murale assessed as decrease in total dry weight at 0.6 kg/ha applied as spray during postemergence relative to weed-infested control; type: functional; set-up: scale not given: the % may be the effect or the level left
Chenopodiastrum murale [22] = assay: Herbicidal activity against Chenopodium murale assessed as decrease in total dry weight at 0.02 kg/ha applied as spray during postemergence relative to weed-infested control; type: functional; set-up: scale not given: the % may be the effect or the level left
Malva sylvestris [23] = assay: Herbicidal activity against Malva sylvestris assessed as total fresh weight at 0.02 kg/ha applied as spray during post-emergence (reference value: 23.6 MT/ha); type: functional
Chenopodiastrum murale [24] = assay: Herbicidal activity against Chenopodium murale assessed as total fresh weight at 0.02 kg/ha applied as spray during postemergence (reference value: 23.6 MT/ha); type: functional
Cyperus rotundus [25] = assay: Herbicidal activity against Cyperus rotundus assessed as total fresh weight at 0.02 kg/ha applied as spray during post-emergence (reference value: 23.6 MT/ha); type: functional
Cyperus rotundus [26] = assay: Herbicidal activity against Cyperus rotundus assessed as decrease in total dry weight at 0.02 kg/ha applied as spray during post-emergence relative to weed-infested control; type: functional; set-up: scale not given: the % may be the effect or the level left
Allium cepa [27] = assay: Phytotoxicity in Allium cepa (onion) seedling assessed as total fresh weight at 0.02 kg/ha applied as spray during postemergence (reference value: 7.71 MT/ha); type: organism-based; conditions: in vivo, other
Malva sylvestris [28] = assay: Herbicidal activity against Malva sylvestris assessed as decrease in total dry weight at 0.02 kg/ha applied as spray during post-emergence relative to weed-infested control; type: functional; set-up: scale not given: the % may be the effect or the level left
Allium cepa [29] = assay: Phytotoxicity in Allium cepa (onion) seedling assessed as total fresh weight at 1.5 kg/ha applied as spray before seed sowing (reference value: 7.71 MT/ha); type: organism-based; conditions: in vivo, other
Cyperus rotundus [30] = assay: Herbicidal activity against Cyperus rotundus assessed as total fresh weight at 1.5 kg/ha applied as spray before seed sowing (reference value: 23.6 MT/ha); type: functional; conditions: pooled result: one value given for 3 cell lines, strains, targets or settings
Cyperus rotundus [31] = assay: Herbicidal activity against Cyperus rotundus assessed as total dry weight at 1.5 kg/ha applied as spray before seed sowing (reference value: 4.1 MT/ha); type: functional; conditions: pooled result: one value given for 3 cell lines, strains, targets or settings

Q: What does the source list for `C[C@@H](Oc1ccc(Oc2ccc(C(F)(F)F)cn2)cc1)C(=O)O` [FLUAZIFOP-P]?
A: Activity (Cyperus rotundus [1]): 15.6 MT/ha; Activity (Chenopodiastrum murale [2]): 15.6 MT/ha; Activity (Malva sylvestris [3]): 15.6 MT/ha; Activity (Malva sylvestris [4]): 2.9 MT/ha; Activity (Allium cepa [5]): 9.18 MT/ha; Activity (Cyperus rotundus [6]): 2.9 MT/ha; Activity (Chenopodiastrum murale [7]): 2.9 MT/ha

Q: How did the Activity (Cyperus rotundus [8]) turn out when `CCOc1cc(Oc2ccc(C(F)(F)F)cc2Cl)ccc1[N+](=O)[O-]` [OXYFLUORFEN] was run?
A: 2.93 MT/ha

Q: What about the Activity (Allium cepa [9]) of the same compound?
A: 17.01 MT/ha

Q: What about the Activity (Chenopodiastrum murale [10]) of the same compound?
A: 2.93 MT/ha

Q: What about the Activity (Malva sylvestris [11]) of the same compound?
A: 68%

Q: And the Activity (Chenopodiastrum murale [12])?
A: 15.8 MT/ha

Q: What about the Activity (Malva sylvestris [13]) of the same compound?
A: 2.93 MT/ha

Q: What about the Activity (Cyperus rotundus [14]) of the same compound?
A: 68%

Q: And the Activity (Malva sylvestris [15])?
A: 15.8 MT/ha

Q: And the Activity (Malva sylvestris [16])?
A: 7.7 MT/ha

Q: What about the Activity (Cyperus rotundus [17]) of the same compound?
A: 15.8 MT/ha

Q: What about the Activity (Chenopodiastrum murale [18]) of the same compound?
A: 7.7 MT/ha

Q: And the Activity (Allium cepa [19])?
A: 8.68 MT/ha

Q: What about the Activity (Cyperus rotundus [20]) of the same compound?
A: 7.7 MT/ha

Q: What about the Activity (Chenopodiastrum murale [21]) of the same compound?
A: 68%

Q: Which Activity (Chenopodiastrum murale [22]) does the source give for `C[n+]1ccc(-c2cc[n+](C)cc2)cc1` [PARAQUAT] here?
A: 60%

Q: What about the Activity (Malva sylvestris [23]) of the same compound?
A: 8.2 MT/ha

Q: What about the Activity (Chenopodiastrum murale [24]) of the same compound?
A: 8.2 MT/ha

Q: And the Activity (Cyperus rotundus [25])?
A: 8.2 MT/ha

Q: And the Activity (Cyperus rotundus [26])?
A: 60%

Q: What about the Activity (Allium cepa [27]) of the same compound?
A: 14.11 MT/ha

Q: And the Activity (Malva sylvestris [28])?
A: 60%

Q: Which Activity (Allium cepa [29]) does the source give for `CCC(CC)Nc1c([N+](=O)[O-])cc(C)c(C)c1[N+](=O)[O-]` [PENDIMETHALIN] here?
A: 7.42 MT/ha

Q: What about the Activity (Cyperus rotundus [30]) of the same compound?
A: 17.5 MT/ha

Q: And the Activity (Cyperus rotundus [31])?
A: 2.9 MT/ha
